The test system of data set [1] is lethal effect of norepinephrine. In words: Adrenolytic activity in vivo on the lethal effect of norepinephrine in rats. The following applies: for ED50: Rattus norvegicus, wake male rats, norepinephrine 0.4 mg.kg^-1 intravenous, prior administration of product, read-out: ED50 (dose which protects 50% of the animals); for adrenolytic activity in the whole animals: rats, in words. As for the experimental part: The intravenous injection of norepinephrine (0.4 mg.kg^-1) into wake male rats causes the death of 100% of the animals. The prior administration of a substance which has an alpha-blocking property makes it possible to reduce this toxicity.
The results are expressed in the form of the 50% effective dose (ED50), i.e. the dose in mg.kg^-1 which protects 50% of the animals (Table 5).

Data set [2] is described as follows: Acute toxicity in mice (oral, LD50). The following applies: mouse, in vivo, male mice, single dose, 14-day observation. The protocol:
The products were administered orally in a single dose to male mice with an average weight of 22 g. The mortality was recorded after a 14-day observation period.
The results are expressed in the form of the 50% lethal dose (LD50), i.e. the theoretical dose in mg.kg^-1, administered orally, which causes the death of 50% of the animals.
The majority of the molecules have an LD50 of more than 1 g.kg^-1. These are therefore products with a low toxicity after a single administration.

Data set [3] has as its target T1, postsynaptic alpha-adrenergic receptors (Rattus norvegicus, UniProt P43140).
T1 construct: causes contraction of the isolated vas deferens; from tissue; host or cells: isolated rat vas deferens
T1 sequence (P43140 1-466): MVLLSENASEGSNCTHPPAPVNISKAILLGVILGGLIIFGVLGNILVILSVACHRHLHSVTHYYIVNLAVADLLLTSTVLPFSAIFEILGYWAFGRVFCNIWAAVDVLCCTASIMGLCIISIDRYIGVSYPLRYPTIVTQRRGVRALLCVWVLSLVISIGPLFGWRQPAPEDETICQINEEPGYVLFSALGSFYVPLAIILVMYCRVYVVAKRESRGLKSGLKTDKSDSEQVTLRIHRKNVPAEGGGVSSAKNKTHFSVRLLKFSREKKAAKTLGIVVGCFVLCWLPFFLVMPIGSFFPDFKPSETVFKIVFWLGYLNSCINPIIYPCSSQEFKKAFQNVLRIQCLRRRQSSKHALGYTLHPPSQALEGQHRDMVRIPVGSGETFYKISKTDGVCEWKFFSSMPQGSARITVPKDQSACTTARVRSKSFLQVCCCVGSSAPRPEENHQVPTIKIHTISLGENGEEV
In words: Alpha-blocking activity towards norepinephrine on isolated rat vas deferens. The data set is classed as biochemical. As to conditions: -log of concentration requiring doubled norepinephrine; for Kb: read-out: pA2 (converted). The protocol: Stimulation of the postsynaptic alpha-adrenergic receptors by norepinephrine causes contraction of the isolated vas deferens.
The concentration of product in whose presence the norepinephrine concentration must be doubled in order to obtain the same effect as in the absence of said product is determined. The logarithm of this concentration, with the opposite sign, constitutes the pA2 of the products.
Their alpha-blocking activity is high since it appears for low concentrations of between 10^-6 M and 10^-8 M.

In data set [4] the test system is femoral blood pressure and heart rate. Nature of the data set: Cardiovascular activity (blood pressure and heart rate) in anesthetized rats. The data set is classed as in vivo. As to conditions: for hypotensive potential compared with nicardipine: ED25 values 5 min after I.V. injection, in words; for Heart rate, maximum effect in % / ED25: I.V., pentobarbital-anesthetized rats; for ED25: Rattus norvegicus, iv, 25% drop in average blood pressure. The protocol: The cardiovascular effects of three products were studied in rats anesthetized with pentobarbital and placed under artificial respiration. The femoral blood pressure and the heart rate are recorded by means of a GOULD-BRUSH apparatus.
The products are administered intravenously in increasing doses. Three animals are tested per product. The dose which causes a 25% drop in average blood pressure (ED25) was evaluated for each product and compared with nicardipine 1 to 5 min after administration.
The products have dose-dependent hypotensive effects but have little or no effect on the heart rate (Table 7). The most hypotensive in terms of the effective dose is B 1395 (ED25 of 0.004 mg.kg^-1).

The mark [5] stands for this setting: 1 min, 1 minute, read-out: Blood pressure: Hypotension, ED25 at 1 minute.
Setting [6] is: 5 min, 5 minutes, read-out: Blood pressure: Hypotension, ED25 at 5 minutes.

These results are taken from patent US5322846A, “4-methylthiazole derivatives, their methods of preparation and the pharmaceutical compositions in which they are present” (Institut de Recherches Chimiques et Biologiques Appliquees …, priority 1990, dated 1994).

Where two headings read alike, the source gives them in different places. A value given as a limit tells only on which side of the number the result lay.

As to `Cc1ncsc1OCCN1CCN(c2cccc(C(F)(F)F)c2)CC1` [B 1194, 4-methyl-5-[2-(4-m-trifluoromethylphenylpiperazin-1yl)ethoxy]thiazole], in data set [1], the ED50 was found to be 200 mg/kg. Further, the LD50 at 336 h in data set [2] was above 1000 mg/kg. In addition, the Kb in data set [3] is 2570 nM.

Take `COc1ccccc1N1CCN(CCOc2scnc2C)CC1` [B 1223, 4-methyl-5-[2-(4-o-methoxyphenylpiperazin-1-yl)ethoxy]thiazole]: the 50% effective dose (ED50) in data set [1] stood at 13 mg/kg. For the same compound, the LD50 at 336 h in data set [2] was above 1000 mg/kg. Besides, in data set [3], the Kb was 269 nM.

In the case of `Cc1ncsc1OCCN1CCN(c2ccc(F)cc2)CC1` [B 1227, 4-methyl-5-[2-(4-p-fluorophenylpiperazin-1-yl)ethoxy]thiazole], the ED50 in data set [1] worked out at 30 mg/kg. Also, the median lethal dose (LD50) at 336 h in data set [2] was 1000 mg/kg. The Kb in data set [3] is above 1000 nM.

Turning to `CCCOc1ccccc1N1CCN(CCOc2scnc2C)CC1` [B 1242], the “adrenolytic activity in the whole animals” value (“adrenolytic activity” below) in data set [1] is given as “very active”.

In the case of `Cc1cc(Cl)ccc1N1CCN(CCOc2scnc2C)CC1` [B 1259, 4-methyl-5-[2-[4-(4-chloro-2-methylphenyl)piperazin-1-yl]ethoxy]thiazole], in data set [1], the ED50 came to 45 mg/kg. In data set [2], the LD50 at 336 h turned out to be 630 mg/kg. Besides, the Kb in data set [3] was 1350 nM.

`Cc1ccc(Cl)cc1N1CCN(CCOc2scnc2C)CC1` [B 1313, 4-methyl-5-[2-[4-(5-chloro-2-methylphenyl)piperazin-1-yl]ethoxy]thiazole]: the ED50 in data set [1] worked out at 109 mg/kg. The same compound had a 50% lethal dose (LD50) at 336 h in data set [2] of 770 mg/kg. The Kb in data set [3] was 81.3 nM.

For `CCOc1cccc(N2CCN(CCOc3scnc3C)CC2)c1` [B 1325, 4-methyl-5-[2-(4-m-ethoxyphenylpiperazin-1-yl)-ethoxy]thiazole], the ED50 in data set [1] came out at 49 mg/kg. Also, the median lethal dose (LD50) at 336 h in data set [2] was above 1000 mg/kg. In addition, in data set [3], the Kb was 813 nM.

Turning to `Cc1cccc(Cl)c1N1CCN(CCOc2scnc2C)CC1` [B 1366, 4-methyl-5-[2-[4-(6-chloro-2-methylphenyl)piperazin-1-yl]ethoxy]thiazole], in data set [1], the ED50 came to 100 mg/kg. In addition, in data set [2], the LD50 at 336 h was determined as 740 mg/kg. In data set [3], the Kb is above 1000 nM.

Turning to `Cc1ncsc1OCC(O)CN1CCN(c2ccccc2O)CC1` (stereo not shown) [B 1396, 3-(4-o-hydroxyphenylpiperazin-1-yl)-1-(4-methylthiazolyl-5-oxy)propan-2-ol], in data set [4], the “hypotensive potential compared with nicardipine” value is “on a level with that of nicardipine” and the “Heart rate, maximum effect in %” value stood at 0%. Also, the ED25 in data set [4] (setting [5]) was 0.008 mg/kg. The ED25 in data set [4] (setting [6]) came out at 0.06 mg/kg. In data set [1], the median effective dose (ED50) turned out to be 0.6 mg/kg and the “adrenolytic activity” value is reported as “very active”. In data set [2], the median lethal dose (LD50) at 336 h came to 315 mg/kg. The Kb in data set [3] is 316 nM.

`Cc1cc(Cl)ccc1N1CCN(CC(O)COc2scnc2C)CC1` (stereo not shown) [B 1406, 3-[4-(4-chloro-2-methylphenyl)piperazin-1-yl]-1-(4-methylthiazolyl-5-oxy)propan-2-ol]: the 50% effective dose (ED50) in data set [1] came out at 8.1 mg/kg. This compound had an LD50 at 336 h in data set [2] of 515 mg/kg. Further, in data set [3], the pA2 is listed as 6.40.

Regarding `Cc1ncsc1OCC(O)CN1CCN(c2ccccc2OC(C)C)CC1` (stereo not shown) [B 1429, 3-(4-o-isopropoxyphenylpiperazin-1-yl)-1-(4-methylthiazolyl-5-oxy)propan-2-ol], the “Heart rate, maximum effect in %” value in data set [4] is -5.1%. Moreover, in data set [4] (setting [5]), the ED25 was 0.016 mg/kg. In addition, in data set [4] (setting [6]), the ED25 turned out to be 0.03 mg/kg. In addition, in data set [1], the median effective dose (ED50) is 0.5 mg/kg and the “adrenolytic activity” value is reported as “very active”. For the same compound, in data set [2], the LD50 at 336 h was found to be 428 mg/kg. In addition, the Kb in data set [3] is 4.57 nM.

For `Cc1ncsc1OCCN1CCN(c2ccccc2O)CC1` [B 1430, 4-methyl-5-[2-(4-o-hydroxyphenylpiperazin-1-yl)-ethoxy]thiazole], the ED50 in data set [1] was 8.3 mg/kg. In data set [2], the median lethal dose (LD50) at 336 h came out at 305 mg/kg. Moreover, in data set [3], the Kb was 229 nM.

In the case of `Cc1ncsc1OCC(O)CN1CCN(c2ccccc2OCC(C)C)CC1` (stereo not shown) [B 1431, 3-(4-o-phenylpiperazin-1-yl)-1-(4-methylthiazolyl-5-oxy)propan-2-ol], in data set [4], the “hypotensive potential compared with nicardipine” value was “on a level with that of nicardipine” and the “Heart rate, maximum effect in %” value was -12%. The ED25 in data set [4] (setting [5]) came out at 0.1 mg/kg. In addition, the ED25 in data set [4] (setting [6]) was found to be 0.24 mg/kg. In data set [1], the 50% effective dose (ED50) amounted to 0.4 mg/kg and the “adrenolytic activity” value is “very active”. Further, the LD50 at 336 h in data set [2] amounted to 1000 mg/kg. For the same compound, the Kb in data set [3] was 7.41 nM.

For `Cc1ncsc1OCC(O)CN1CCN(c2cccc(C(F)(F)F)c2)CC1` (stereo not shown) [B 1489, 3-(4-m-trifluoromethylphenylpiperazin-1-yl)-1-(4-methylthiazolyl-5-oxy)propan-2-ol], the ED50 in data set [1] is 59.7 mg/kg. In data set [2], this compound showed an LD50 at 336 h above 1000 mg/kg.

Regarding `COc1ccccc1N1CCN(CC(O)COc2scnc2C)CC1` (stereo not shown) [B 1510, 3-(4-o-methoxyphenylpiperazin-1-yl)-1-(4-methylthiazolyl-5-oxy)propan-2-ol], the “Heart rate, maximum effect in %” value in data set [4] is recorded as -6%. The ED25 in data set [4] (setting [5]) and in data set [4] (setting [6]) was 0.01 mg/kg each time. In addition, in data set [1], the 50% effective dose (ED50) came out at 0.52 mg/kg. In data set [1], the “adrenolytic activity” value is reported as “very active”. Moreover, the LD50 at 336 h in data set [2] worked out at 235 mg/kg. In addition, the Kb in data set [3] is 21.4 nM.

As to `CCCCCOc1ccccc1N1CCN(CC(O)COc2scnc2C)CC1` (stereo not shown) [B 1525, 3-(4-o-pentoxyphenylpiperazin-1-yl)-1-(4-methylthiazolyl-5-oxy)propan-2-ol], the “Heart rate, maximum effect in %” value in data set [4] is given as -8%. Further, in data set [4] (setting [5]), the ED25 was 0.04 mg/kg. Further, the ED25 in data set [4] (setting [6]) stood at 0.04 mg/kg. For the same compound, in data set [1], the ED50 was 1.27 mg/kg and the “adrenolytic activity” value is given as “very active”. Further, in data set [2], the median lethal dose (LD50) at 336 h was above 1000 mg/kg. The Kb in data set [3] is 7.94 nM.

Take `Cc1ncsc1OCC(O)CN1CCN(c2cccc(Cl)c2)CC1` (stereo not shown) [B 1548, 3-(4-m-chlorophenylpiperazin-1-yl)-1-(4-methylthiazolyl-5-oxy)propan-2-ol]: in data set [1], the ED50 was found to be 15.8 mg/kg and the “adrenolytic activity” value is “very active”. For the same compound, the LD50 at 336 h in data set [2] is above 500 mg/kg.

For the compound `Cc1ncsc1OCC(O)CN1CCN(c2ccccc2OCCC(C)C)CC1` (stereo not shown) [B 1552, 3-(4-o-isopentoxyphenylpiperazin-1-yl)-1-(4-methylthiazolyl-5-oxy)propan-2-ol], in data set [4], the “hypotensive potential compared with nicardipine” value is “on a level with that of nicardipine” and the “Heart rate, maximum effect in %” value is -7.9%. Further, in data set [4] (setting [5]), the ED25 turned out to be 0.12 mg/kg. Moreover, the ED25 in data set [4] (setting [6]) is 0.25 mg/kg. Moreover, in data set [1], the 50% effective dose (ED50) was 1.55 mg/kg and the “adrenolytic activity” value was “very active”. Moreover, the median lethal dose (LD50) at 336 h in data set [2] was above 1000 mg/kg. The Kb in data set [3] is 22.9 nM.

In turn, `Cc1ncsc1OCC(O)CN1CCN(c2ccccc2OCC(C)(C)C)CC1` (stereo not shown) [B 1562, 3-(4-o-neopentoxyphenylpiperazin-1-yl)-1-(4-methylthiazolyl-5-oxy)propan-2-ol] gave a 50% lethal dose (LD50) at 336 h in data set [2] above 1000 mg/kg.

Turning to `COC(=O)C1=C(C)NC(C)=C(C(=O)OCCN(C)Cc2ccccc2)C1c1cccc([N+](=O)[O-])c1` (stereo not shown) [NICARDIPINE, nicardipine, reference compound], in data set [4], the “Heart rate, maximum effect in %” value came to 0%. The ED25 in data set [4] (setting [5]) came to 0.0015 mg/kg; in data set [4] (setting [6]), 0.2 mg/kg.
